Laboratory results published in patent US8461389B2, “Psycho-pharmaceuticals” (University College Dublin, National University of Ireland, …, priority 2008, dated 2013).

Key:
dopamine D3 receptor = molecular target: T1, dopamine D3 receptor (Homo sapiens, UniProt P35462); assay: Novascreen receptor affinity screen (competition with reference ligand), dopamine D3; assay type: binding; details: 1 μM Captodiamine competing with a reference ligand; read-out: percent target inhibition, dopamine D3 receptor
T1 construct: Novascreen (contract screen)
Experimental: (§1) The Structure (FIG. 9A), receptor affinity (FIG. 9B), pharmacokinetics (FIG. 9C) and growth factor modulation (FIG. 9D) of Captodiamine are provided. Analysis of receptor affinities was performed by Novascreen™ and those displacing >20% of the natural ligand are indicated by the filled boxes. Blood levels of Captodiamine were determined by GC mass spectroscopy. In separate samples taken from a cannulated jugular at increasing time intervals following a single intraperitoneal injection of tha drug (5 mg/kg). Growth factor analysis was performed using tissue homogenates and ELISA assays specific for each growth factor (Promega). Values were analysed using a Student t-test and those with a p value<0.05 were accepted as significant and are indicated with an asterisk.
(§2) The higher the target inhibition value, the greater the affinity Captodiamine has for this particular receptor as it displaces a greater proportion of the reference ligand. This assay is an automated high throughput assay performed on cell lines that express only one type of receptor and was carried out by Novascreen (www.novascreen.com). Receptor affinity is a good starting point for determining the mechanism of action for a particular compound.

serotonin 5HT2c receptor = molecular target: T2, serotonin 5HT2c receptor (Homo sapiens, UniProt P28335); assay: Novascreen receptor affinity screen (competition with reference ligand), 5HT2c; assay type: binding; details: 1 μM Captodiamine competing with a reference ligand; read-out: percent target inhibition, serotonin 5HT2c receptor
T2 construct: Novascreen (contract screen)
T2 sequence (P28335 33-458): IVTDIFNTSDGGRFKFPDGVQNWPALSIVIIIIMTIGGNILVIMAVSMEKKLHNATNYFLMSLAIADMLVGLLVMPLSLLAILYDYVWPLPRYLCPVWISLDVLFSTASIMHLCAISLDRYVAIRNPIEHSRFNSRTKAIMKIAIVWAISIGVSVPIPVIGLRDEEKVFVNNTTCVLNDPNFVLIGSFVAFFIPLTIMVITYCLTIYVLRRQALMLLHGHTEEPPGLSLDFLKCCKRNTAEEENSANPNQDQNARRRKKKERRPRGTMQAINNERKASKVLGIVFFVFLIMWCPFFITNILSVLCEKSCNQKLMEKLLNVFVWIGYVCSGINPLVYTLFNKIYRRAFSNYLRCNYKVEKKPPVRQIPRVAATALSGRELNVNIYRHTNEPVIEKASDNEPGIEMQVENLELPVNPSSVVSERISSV
Experimental: as §1, §2

Sigma 2 receptor = molecular target: T3, Sigma 2 receptor (Homo sapiens, UniProt Q5BJF2); assay: Novascreen receptor affinity screen (competition with reference ligand), Sigma 2; assay type: binding; details: 1 μM Captodiamine competing with a reference ligand; read-out: percent target inhibition, Sigma 2 receptor
T3 construct: Novascreen (contract screen)
Experimental: as §1, §2

C57B16 mice = assay: Elevated X-maze; assay type: in vivo; details: 3 and 5 mg/kg i.p. once daily for 7 days; FIG. 4
Excerpt: The elevated X-Maze, otherwise known as the Elevated Plus Maze is a test that relies on the inherent conflict between exploration of a novel area and avoidance of its aversive features. The test may be used in male or female rats or mice or male gerbils. It is reliable in a wide range of strains and in group-housed or isolated animals. The maze consists of four arms in the form of an x or plus: two open arms and two arms of the same size, also with an open roof but enclosed by walls. The two open arms are opposite each other and converge into a central platform. The animal under investigating is observed by a video camera and its movements scored by the tracking software Ethovision by Noldus. During the experiment the animal is placed in the central platform of the maze facing an open arm and is observed for 5 minutes with the following being measured: number of entries into open arms, number of entries into closed arms, time spent in open arms, time spent in closed arms and finally the time spent in the central square (File et al., Current Protocols in Neuroscience (2004) 8.3.1-8.3.22).
The elevated X-maze has strong claims to validity as an animal model of anxiety and is of great utility in evaluating putative anxiety modulating drugs. The test is based on rodents' natural fear of heights and open spaces. […]

[1] = system: GDNF (Glial cell derived neurotrophic factor); assay: GDNF levels in brain regions by ELISA after sub-chronic administration; assay type: in vivo, mice; details: sub-chronic 7 day treatment, FIG. 9D
Experimental: Neurotrophic factor concentration was determined by using an ELISA purchased from Promega Inc;
The Experimental protocol employed in the behavioural evaluation of Captodiamine is set out as follows: Three separate cohorts of C57B16 mice were employed in the behavioural evaluation of Captodiamine (see FIG. 7). Cohort 1 was used to evaluate the drug effect on prepulse inhibition, spatial learning, open-field and novel object recognition. Cohort 2 was used to evaluate drug effects on the forced swim test and the elevated X-maze. The behavioural tests were administered in sequence as per day number indicated in the bar of FIG. 7. The drug was administered by the intraperitoneal route and on the day of training the drug was administered after the behavioural analysis. […]
The Structure (FIG. 9A), receptor affinity (FIG. 9B), pharmacokinetics (FIG. 9C) and growth factor modulation (FIG. 9D) of Captodiamine are provided. […] Blood levels of Captodiamine were determined by GC mass spectroscopy. […] Values were analysed using a Student t-test and those with a p value<0.05 were accepted as significant and are indicated with an asterisk.

T1 sequence (P35462 whole entry, species assumed): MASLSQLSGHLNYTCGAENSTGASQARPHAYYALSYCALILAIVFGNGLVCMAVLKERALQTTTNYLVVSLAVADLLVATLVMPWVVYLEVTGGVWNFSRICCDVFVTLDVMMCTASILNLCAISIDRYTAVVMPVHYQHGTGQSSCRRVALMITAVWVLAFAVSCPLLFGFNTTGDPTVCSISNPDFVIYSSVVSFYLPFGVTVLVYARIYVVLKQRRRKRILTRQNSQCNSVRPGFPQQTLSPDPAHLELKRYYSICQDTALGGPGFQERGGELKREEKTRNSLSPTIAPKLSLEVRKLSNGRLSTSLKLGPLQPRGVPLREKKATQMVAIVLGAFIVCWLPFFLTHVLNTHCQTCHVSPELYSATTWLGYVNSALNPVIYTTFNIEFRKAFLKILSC
T3 sequence (Q5BJF2 whole entry, species assumed): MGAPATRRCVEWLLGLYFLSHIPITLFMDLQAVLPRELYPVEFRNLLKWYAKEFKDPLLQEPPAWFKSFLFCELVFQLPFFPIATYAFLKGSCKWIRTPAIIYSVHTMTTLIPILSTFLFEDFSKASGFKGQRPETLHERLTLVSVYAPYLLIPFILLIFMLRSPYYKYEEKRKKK

## CCCCSc1ccc(C(SCCN(C)C)c2ccccc2)cc1 (stereo not drawn) [Captodiamine, 2-[(4-butylsulfanylphenyl)-phenyl-methyl]sulfanyl-N,N-dimethyl-ethanamin]
Dopamine D3 receptor
  inhibition at 1 µM: > 80%
Serotonin 5HT2c receptor
  inhibition at 1 µM: > 80%
Sigma 2 receptor
  inhibition at 1 µM: > 20%
C57B16 mice
  time exploring the open arms of the elevated X-maze: significantly longer periods exploring the open arms
[1]
  GDNF expression levels, hypothalamus: but not in either the hippocampus or the hypothalamus
  GDNF expression levels, prefrontal cortex: significantly decreased
